Laboratory results as given in PubChem BioAssay (NCI).
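Dose response: 5 concentrations. Exposure: 48 h. Format: 96-well plates. Endpoint: linear interpolation; highest concentration if not reached. TGI denotes the concentration required for complete inhibition of growth.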

Key:
Assay in all cases: NCI tumour cell line growth inhibition, 48 h
MCF7 breast = system: MCF7 breast
NCI-H460 lung = system: NCI-H460 lung
HCC-2998 colon = system: HCC-2998 colon
COLO 205 colon = system: COLO 205 colon
MDA-MB-231 breast = system: MDA-MB-231 breast
786-0 renal = system: 786-0 renal
T-47D breast = system: T-47D breast
NCI-H226 lung = system: NCI-H226 lung
SK-MEL-28 melanoma = system: SK-MEL-28 melanoma
RXF 393 renal = system: RXF 393 renal
HS 578T breast = system: HS 578T breast
OVCAR-8 ovarian = system: OVCAR-8 ovarian
SF-539 CNS = system: SF-539 CNS
PC-3 prostate = system: PC-3 prostate
U251 CNS = system: U251 CNS
CAKI-1 renal = system: CAKI-1 renal
BT-549 breast = system: BT-549 breast
OVCAR-3 ovarian = system: OVCAR-3 ovarian
SK-MEL-5 melanoma = system: SK-MEL-5 melanoma
KM12 colon = system: KM12 colon
SK-OV-3 ovarian = system: SK-OV-3 ovarian
SF-295 CNS = system: SF-295 CNS
HOP-92 NSCLC = system: HOP-92 NSCLC
ACHN renal = system: ACHN renal
LOX IMVI melanoma = system: LOX IMVI melanoma
A498 renal = system: A498 renal
MDA-N = system: MDA-N
NCI-H522 lung = system: NCI-H522 lung
SN12C renal = system: SN12C renal
HT29 colon = system: HT29 colon
K-562 leukemia = system: K-562 leukemia
MALME-3M melanoma = system: MALME-3M melanoma
RPMI-8226 leukemia = system: RPMI-8226 leukemia
SR leukemia = system: SR leukemia
OVCAR-4 ovarian = system: OVCAR-4 ovarian
M14 melanoma = system: M14 melanoma
SW-620 colon = system: SW-620 colon
MDA-MB-435 = system: MDA-MB-435
NCI/ADR-RES ovarian = system: NCI/ADR-RES ovarian
OVCAR-5 ovarian = system: OVCAR-5 ovarian
CCRF-CEM leukemia = system: CCRF-CEM leukemia
MOLT-4 leukemia = system: MOLT-4 leukemia
HCT-116 colon = system: HCT-116 colon
SF-268 CNS = system: SF-268 CNS
NCI-H23 lung = system: NCI-H23 lung
SK-MEL-2 melanoma = system: SK-MEL-2 melanoma
DU-145 prostate = system: DU-145 prostate
UACC-257 melanoma = system: UACC-257 melanoma
IGROV1 ovarian = system: IGROV1 ovarian
UACC-62 melanoma = system: UACC-62 melanoma
UO-31 renal = system: UO-31 renal
A549 NSCLC = system: A549 NSCLC
SNB-75 CNS = system: SNB-75 CNS
HCT-15 colon = system: HCT-15 colon
SNB-19 CNS = system: SNB-19 CNS
HOP-62 NSCLC = system: HOP-62 NSCLC
TK-10 renal = system: TK-10 renal
HL-60(TB) leukemia = system: HL-60(TB) leukemia
EKVX NSCLC = system: EKVX NSCLC

O=[N+]([O-])/C(Cl)=C(\NCCO)C(Cl)=C(Cl)Cl
TGI (MCF7 breast): > 100 µM | TGI (NCI-H460 lung): > 100 µM | TGI (HCC-2998 colon): > 100 µM | TGI (COLO 205 colon): 79.3 µM | TGI (MDA-MB-231 breast): > 90.7 µM | TGI (786-0 renal): 73.8 µM | TGI (T-47D breast): 99.8 µM | TGI (NCI-H226 lung): > 100 µM | TGI (SK-MEL-28 melanoma): > 100 µM | TGI (RXF 393 renal): > 96.3 µM | TGI (HS 578T breast): > 91.5 µM | TGI (OVCAR-8 ovarian): > 92.5 µM | TGI (SF-539 CNS): > 100 µM | TGI (PC-3 prostate): > 100 µM | TGI (U251 CNS): > 100 µM | TGI (CAKI-1 renal): > 100 µM | TGI (BT-549 breast): > 100 µM | TGI (OVCAR-3 ovarian): > 100 µM | TGI (SK-MEL-5 melanoma): > 100 µM | TGI (KM12 colon): > 100 µM | TGI (SK-OV-3 ovarian): > 100 µM | TGI (SF-295 CNS): > 100 µM | TGI (HOP-92 NSCLC): > 100 µM | TGI (ACHN renal): > 100 µM | TGI (LOX IMVI melanoma): > 100 µM | TGI (A498 renal): > 100 µM | TGI (MDA-N): > 96.3 µM | TGI (NCI-H522 lung): 53 µM | TGI (SN12C renal): > 100 µM | TGI (HT29 colon): > 100 µM | TGI (K-562 leukemia): 39.7 µM | TGI (MALME-3M melanoma): 65 µM | TGI (RPMI-8226 leukemia): 40.5 µM | TGI (SR leukemia): 49.2 µM | TGI (OVCAR-4 ovarian): > 100 µM | TGI (M14 melanoma): 77.5 µM | TGI (SW-620 colon): 77.4 µM | TGI (MDA-MB-435): > 100 µM | TGI (NCI/ADR-RES ovarian): > 77.9 µM | TGI (OVCAR-5 ovarian): > 100 µM | TGI (CCRF-CEM leukemia): 52.1 µM | TGI (MOLT-4 leukemia): 63.6 µM | TGI (HCT-116 colon): 81.5 µM | TGI (SF-268 CNS): > 100 µM | TGI (NCI-H23 lung): > 100 µM | TGI (SK-MEL-2 melanoma): > 100 µM | TGI (DU-145 prostate): > 100 µM | TGI (UACC-257 melanoma): > 100 µM | TGI (IGROV1 ovarian): > 100 µM | TGI (UACC-62 melanoma): > 100 µM | TGI (UO-31 renal): > 86.4 µM | TGI (A549 NSCLC): > 100 µM | TGI (SNB-75 CNS): > 100 µM | TGI (HCT-15 colon): 76.8 µM | TGI (SNB-19 CNS): > 100 µM | TGI (HOP-62 NSCLC): > 100 µM | TGI (TK-10 renal): > 100 µM | TGI (HL-60(TB) leukemia): 11.4 µM | TGI (EKVX NSCLC): > 100 µM
